This passage reports TGI and GI50 results from PubChem BioAssay (NCI).

Molecules are shown by their SMILES.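 Protocol summary: plate cells (96-well), add compound at 5 concentrations, incubate 48 h, interpolate endpoints linearly. GI50 marks 50% less growth. TGI: total growth inhibition.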

Some test systems named below: CAKI-1 renal; EKVX NSCLC; LOX IMVI melanoma; M14 melanoma; MOLT-4 leukemia; OVCAR-3 ovarian; SF-295 CNS; SK-MEL-5 melanoma; UACC-62 melanoma.
Common to all, as to test: NCI anticancer screen, dose series, 48 h

As for `Cc1cccc(C)c1NC(=O)C1C(=O)N(c2c(C)cccc2C)C(=O)/C1=N\N` (stereo not drawn), the TGI with CAKI-1 renal, in the test on EKVX NSCLC, in the test on LOX IMVI melanoma, with M14 melanoma, in the test with MOLT-4 leukemia and in the test on OVCAR-3 ovarian was above 100 µM in each case. For the same molecule, the TGI with SF-295 CNS, with SK-MEL-5 melanoma and in the test on UACC-62 melanoma was above 100 µM each time.
As for `Cn1cnc([N+](=O)[O-])c1Sc1nccn1-c1cccc2ccccc12`, the TGI is above 100 µM with CAKI-1 renal; 92.4 µM with EKVX NSCLC; 32.4 µM in the test with LOX IMVI melanoma; 61 µM with M14 melanoma; 43.7 µM with MOLT-4 leukemia; 75.2 µM with OVCAR-3 ovarian. The TGI with SF-295 CNS is above 100 µM; in the test with SK-MEL-5 melanoma it was above 100 µM; in the test on UACC-62 melanoma, 33.9 µM.
Consider `C[C@]12CC/C(=N\O)C=C1CC[C@@H]1C2CC[C@@]2(C)C1CC[C@@H]2OC1CCCCO1` (stereo partly drawn), for which the TGI is above 10 µM in the test on CAKI-1 renal; 31.9 µM in the test with EKVX NSCLC; 37.4 µM in the test with LOX IMVI melanoma; 35.3 µM with M14 melanoma; 29.9 µM with MOLT-4 leukemia; 31.9 µM in the test with OVCAR-3 ovarian. Further, the TGI was 35.8 µM in the test with SF-295 CNS, above 100 µM in the test with SK-MEL-5 melanoma and above 10 µM in the test with UACC-62 melanoma.
Turning to `O=c1c(Br)cc2nc3ccccc3sc-2c1Br`, the TGI in the test on CAKI-1 renal is above 100 µM; with EKVX NSCLC it was above 100 µM; with LOX IMVI melanoma, above 100 µM; in the test on M14 melanoma it was above 100 µM; with MOLT-4 leukemia, above 65.8 µM; in the test on OVCAR-3 ovarian, 32.5 µM. The TGI was above 100 µM in the test on SF-295 CNS, above 100 µM with SK-MEL-5 melanoma and 79.8 µM in the test on UACC-62 melanoma.
`CC(=O)OC[C@@H](COC(=O)/C=C/c1ccc(O)cc1)OC1OC(CO)C(O)C(O)C1O` (stereo partly drawn): the TGI in the test with CAKI-1 renal, in the test with EKVX NSCLC, in the test on LOX IMVI melanoma, in the test on M14 melanoma, with MOLT-4 leukemia and in the test on OVCAR-3 ovarian was above 100 µM each time. The TGI in the test on SF-295 CNS, with SK-MEL-5 melanoma and in the test with UACC-62 melanoma was above 100 µM in each case.
Consider `CCC[CH2][Sn]1([CH2]CCC)[O]CC(CN(C)Cc2ccccc2)[O]1` (stereo not drawn), for which the GI50 in the test with CAKI-1 renal is 1.47 µM; in the test with EKVX NSCLC, 10.7 µM; in the test on LOX IMVI melanoma it was 4.12 µM; in the test on M14 melanoma it was 2.45 µM; in the test on MOLT-4 leukemia, 3.64 µM; in the test with OVCAR-3 ovarian it was 6.35 µM. The GI50 in the test with SF-295 CNS is 9.13 µM; in the test with SK-MEL-5 melanoma it was 11.9 µM; in the test with UACC-62 melanoma it was 4.31 µM. Moreover, the TGI in the test on CAKI-1 renal is 7.13 µM; in the test on EKVX NSCLC it was 27.3 µM; with LOX IMVI melanoma it was 16.2 µM; with M14 melanoma, 7.76 µM; in the test on MOLT-4 leukemia, 20.8 µM; in the test on OVCAR-3 ovarian, 18.4 µM. Moreover, the TGI in the test on SF-295 CNS worked out at 22.4 µM; in the test on SK-MEL-5 melanoma, 24.3 µM; in the test with UACC-62 melanoma, 16.1 µM.
`O=C(c1ccccc1)C1OC12C(=O)Nc1c(Cl)cc(Cl)cc12` (stereo not drawn): the TGI in the test on CAKI-1 renal was above 78 µM; with EKVX NSCLC it was above 100 µM; in the test with LOX IMVI melanoma it was above 61.7 µM; with M14 melanoma it was above 82.4 µM; in the test with MOLT-4 leukemia, 31 µM; in the test with OVCAR-3 ovarian, above 100 µM. For the same molecule, the TGI in the test with SF-295 CNS, in the test with SK-MEL-5 melanoma and in the test on UACC-62 melanoma was above 100 µM throughout.
On to `COC(=O)C(C(=O)C(=O)Nc1ccc([N+](=O)[O-])cc1[N+](=O)[O-])c1nc2ccc(Cl)cc2[nH]c1=O` (stereo not drawn), for which the TGI with CAKI-1 renal, with EKVX NSCLC, with LOX IMVI melanoma, with M14 melanoma, in the test on MOLT-4 leukemia and in the test on OVCAR-3 ovarian was above 100 µM each time. The TGI in the test with SF-295 CNS, in the test with SK-MEL-5 melanoma and with UACC-62 melanoma was above 100 µM each time.
Turning to `Cc1ccc(NC(=O)CC2Sc3ccccc3NC2=O)c(C)c1` (stereo not drawn), the TGI in the test on CAKI-1 renal is 63.3 µM; in the test on EKVX NSCLC it was above 100 µM; in the test with LOX IMVI melanoma it was above 100 µM; in the test on M14 melanoma, 36.5 µM; in the test on MOLT-4 leukemia it was 72.9 µM; with OVCAR-3 ovarian, 28.6 µM. For the same molecule, the TGI in the test with SF-295 CNS came out at 40.2 µM; in the test with SK-MEL-5 melanoma it was 30.9 µM; in the test on UACC-62 melanoma it was 48.9 µM.
Turning to `COC(=O)c1cccn1C(=O)n1cccc1`, the TGI in the test with CAKI-1 renal, in the test with EKVX NSCLC, in the test with LOX IMVI melanoma, in the test with M14 melanoma, in the test with MOLT-4 leukemia and in the test on OVCAR-3 ovarian was above 100 µM in each case. Further, the TGI in the test with SF-295 CNS, in the test on SK-MEL-5 melanoma and with UACC-62 melanoma was above 100 µM throughout.
Take `Cc1cccc(C(C)(C)C)c1NC(=O)CC1C(=O)Nc2ccccc2S1(=O)=O` (stereo not drawn): the TGI was 31.3 µM with CAKI-1 renal; 14.5 µM in the test on EKVX NSCLC; 18.6 µM in the test on LOX IMVI melanoma; 27.8 µM in the test on M14 melanoma; 5.19 µM with MOLT-4 leukemia; 18.1 µM with OVCAR-3 ovarian. Besides, the TGI in the test on SF-295 CNS amounted to 20 µM; in the test on SK-MEL-5 melanoma it was 24.9 µM; in the test with UACC-62 melanoma, 18.6 µM.
